Measurements reported in ChEMBL document CHEMBL1201862, “PubChem BioAssay data set” (2004).
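In this assay, cells in 96-well plates receive the compound at five concentrations for 48 hours. Endpoints are linearly interpolated between the surrounding concentrations. At the GI50, growth is halved.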 Active and inactive are the calls of the source. No stated cut-off is given here; in the data, active = GI50 up to about 1.1 µM and inactive = higher.

Legend:
Assay in all cases: inhibition of tumour cell growth, NCI panel, 48 h
SF-268 = tested on: SF-268
CCRF-CEM = tested on: CCRF-CEM
KM12 = tested on: KM12
HOP-92 = tested on: HOP-92
NCI-H460 = tested on: NCI-H460
SK-OV-3 = tested on: SK-OV-3
SF-295 = tested on: SF-295
RPMI-8226 = tested on: RPMI-8226
PC-3 = tested on: PC-3
Hs-578T = tested on: Hs-578T
MOLT-4 = tested on: MOLT-4
SK-MEL-28 = tested on: SK-MEL-28
A498 = tested on: A498
MDA-MB-435 = tested on: MDA-MB-435
UACC-62 = tested on: UACC-62
Malme-3M = tested on: Malme-3M
HT-29 = tested on: HT-29
OVCAR-4 = tested on: OVCAR-4

Compound | GI50 (SF-268) | GI50 (CCRF-CEM) | GI50 (KM12) | GI50 (HOP-92) | GI50 (NCI-H460) | GI50 (SK-OV-3) | GI50 (SF-295) | GI50 (RPMI-8226) | GI50 (PC-3) | GI50 (Hs-578T) | GI50 (MOLT-4) | GI50 (SK-MEL-28) | GI50 (A498) | GI50 (MDA-MB-435) | GI50 (UACC-62) | GI50 (Malme-3M) | GI50 (HT-29) | GI50 (OVCAR-4)
O=C(N/N=C/c1ccc(Cl)cc1)c1c(Cl)c(Cl)c(Cl)c(Cl)c1-c1nc2ccccc2[nH]1 | > 100 µM (inactive) | 50.4 µM (inactive) | 8.36 µM (inactive) | 23.6 µM (inactive) | 30 µM (inactive) | 0.0454 µM (active) | 0.0405 µM (active) | 22.2 µM (inactive) | 92.5 µM (inactive) | 1.83 µM (inactive) | 40.2 µM (inactive) | > 100 µM (inactive) | 98.2 µM (inactive) | 74.3 µM (inactive) | 80.9 µM (inactive) | > 100 µM (inactive) | 47.3 µM (inactive) | –
COC1=CC(=O)c2c(c(-c3csc(C)n3)cn2C)C1=O | 27.2 µM (inactive) | 19.2 µM (inactive) | 22.8 µM (inactive) | > 100 µM (inactive) | 3.43 µM (inactive) | 57.3 µM (inactive) | 6.75 µM (inactive) | 5.24 µM (inactive) | 20.9 µM (inactive) | 21.6 µM (inactive) | 31.9 µM (inactive) | 44.5 µM (inactive) | 22.5 µM (inactive) | 13.8 µM (inactive) | 12.1 µM (inactive) | – | 23.1 µM (inactive) | 58.2 µM (inactive)
Clc1ccc(NCc2nnc(COc3ccc(OCc4nnc(CNc5ccc(Cl)cc5)o4)c(Cl)c3)o2)cc1 | 33.7 µM (inactive) | 11.2 µM (inactive) | 26.9 µM (inactive) | 13.3 µM (inactive) | 42.6 µM (inactive) | – | 20.7 µM (inactive) | 9.51 µM (inactive) | 24 µM (inactive) | 28.1 µM (inactive) | – | 75.3 µM (inactive) | 28.4 µM (inactive) | 18.5 µM (inactive) | 4.66 µM (inactive) | 51.1 µM (inactive) | 27.2 µM (inactive) | –
CSCSSC | > 100 µM (inactive) | 40.6 µM (inactive) | > 57.3 µM (inactive) | > 75.5 µM (inactive) | > 100 µM (inactive) | 74.6 µM (inactive) | > 100 µM (inactive) | 56.5 µM (inactive) | > 80 µM (inactive) | > 100 µM (inactive) | 4.67 µM (inactive) | > 57.3 µM (inactive) | 0.0231 µM (active) | > 78 µM (inactive) | 61.7 µM (inactive) | 77.1 µM (inactive) | > 100 µM (inactive) | –
Cc1ccc(-c2cc(-c3ccc(Cl)cc3)nc(/N=C3\C(=O)N(CN4CCCCC4)c4ccc(Cl)cc43)n2)cc1 | 17.9 µM (inactive) | 36.3 µM (inactive) | 15.8 µM (inactive) | 15.6 µM (inactive) | 22.5 µM (inactive) | 31.8 µM (inactive) | 42.2 µM (inactive) | – | 34 µM (inactive) | 18.9 µM (inactive) | 11.7 µM (inactive) | 64.1 µM (inactive) | 18.8 µM (inactive) | 20.3 µM (inactive) | 23 µM (inactive) | 84.3 µM (inactive) | 32.3 µM (inactive) | 31.5 µM (inactive)
COc1ccc(/N=C2\C(=O)Nc3ccc(Br)cc32)cc1 | 18.4 µM (inactive) | 13.4 µM (inactive) | 10.7 µM (inactive) | 18.2 µM (inactive) | 21.8 µM (inactive) | 24.3 µM (inactive) | 22.8 µM (inactive) | 5.83 µM (inactive) | 25.3 µM (inactive) | 41.5 µM (inactive) | 16.6 µM (inactive) | 31.3 µM (inactive) | 38.8 µM (inactive) | 13.2 µM (inactive) | 4.89 µM (inactive) | 19.8 µM (inactive) | 23.4 µM (inactive) | –
CCCCCCCCCCCCCC[S+](C)C | 1.51 µM (inactive) | 1.23 µM (inactive) | 1.57 µM (inactive) | 1.18 µM (inactive) | 2.11 µM (inactive) | 4.02 µM (inactive) | 3.33 µM (inactive) | 0.601 µM (active) | 1.24 µM (inactive) | 1.65 µM (inactive) | 1.23 µM (inactive) | 2.58 µM (inactive) | – | 1.91 µM (inactive) | 2.22 µM (inactive) | – | 1.56 µM (inactive) | 2.4 µM (inactive)
C=CCCC1CCCNC1=S (stereo not given) | > 100 µM (inactive) | – | – | > 100 µM (inactive) | > 100 µM (inactive) | > 100 µM (inactive) | > 100 µM (inactive) | > 100 µM (inactive) | > 100 µM (inactive) | > 100 µM (inactive) | – | > 100 µM (inactive) | > 100 µM (inactive) | > 100 µM (inactive) | > 100 µM (inactive) | – | > 100 µM (inactive) | > 100 µM (inactive)
Cc1cc(C)n(C2=NS(=O)(=O)c3ccccc3N2C)n1 | > 100 µM (inactive) | > 100 µM (inactive) | > 100 µM (inactive) | > 100 µM (inactive) | > 100 µM (inactive) | > 100 µM (inactive) | > 100 µM (inactive) | – | > 100 µM (inactive) | > 100 µM (inactive) | > 100 µM (inactive) | > 100 µM (inactive) | > 100 µM (inactive) | > 100 µM (inactive) | > 100 µM (inactive) | – | > 100 µM (inactive) | > 100 µM (inactive)
Cc1nc2c(c(N3CCN(C)CC3)n1)Cc1ccccc1-2 | 62.4 µM (inactive) | 65.2 µM (inactive) | 48 µM (inactive) | 36.7 µM (inactive) | 18.8 µM (inactive) | > 100 µM (inactive) | 42.4 µM (inactive) | > 100 µM (inactive) | 58.7 µM (inactive) | 65 µM (inactive) | > 10 µM (inactive) | – | – | 64.7 µM (inactive) | 42.6 µM (inactive) | 40.8 µM (inactive) | 44.1 µM (inactive) | –
CC1(C)CC2(C)CC1CC2(O)c1ccccc1 (stereo not given) | > 100 µM (inactive) | > 100 µM (inactive) | > 100 µM (inactive) | 42.7 µM (inactive) | > 100 µM (inactive) | > 100 µM (inactive) | > 100 µM (inactive) | – | > 100 µM (inactive) | > 100 µM (inactive) | > 100 µM (inactive) | > 100 µM (inactive) | > 100 µM (inactive) | > 100 µM (inactive) | > 100 µM (inactive) | > 100 µM (inactive) | > 100 µM (inactive) | > 100 µM (inactive)
N[C@@H]1CCN(c2c(F)cc3c(=O)c(C(=O)O)cn4c3c2Oc2c-4ccc3c2ccc2ccccc23)C1 | 5.73 µM (inactive) | – | 4.38 µM (inactive) | 2.13 µM (inactive) | 0.396 µM (active) | 7.46 µM (inactive) | 1.92 µM (inactive) | 0.396 µM (active) | 2.82 µM (inactive) | 10.8 µM (inactive) | 4 µM (inactive) | > 100 µM (inactive) | 11.9 µM (inactive) | 3.03 µM (inactive) | 2.79 µM (inactive) | – | 0.241 µM (active) | 1.17 µM (inactive)
CC(C)=Cc1cc(CCC/C(C)=C/Cc2c(O)cc(C)c(C(=O)O)c2O)co1 | > 100 µM (inactive) | 32.1 µM (inactive) | > 100 µM (inactive) | > 100 µM (inactive) | > 100 µM (inactive) | – | > 100 µM (inactive) | 26.1 µM (inactive) | > 100 µM (inactive) | 26.2 µM (inactive) | – | > 100 µM (inactive) | – | > 100 µM (inactive) | > 100 µM (inactive) | – | > 100 µM (inactive) | > 100 µM (inactive)
CCCCCN(CCCCC)CC(C)(C)C(O)c1ccc(OC)c2ccccc12 (stereo not given) | 13.3 µM (inactive) | 27.9 µM (inactive) | 8.81 µM (inactive) | 2.53 µM (inactive) | 3.4 µM (inactive) | – | 9.77 µM (inactive) | 4.15 µM (inactive) | 10.9 µM (inactive) | 16.6 µM (inactive) | 3.25 µM (inactive) | 10.5 µM (inactive) | 14.3 µM (inactive) | 10.8 µM (inactive) | 12.5 µM (inactive) | 14.1 µM (inactive) | 2.01 µM (inactive) | 11.1 µM (inactive)
CSc1ccc(/C=C2\N=C(c3ccccc3)N(/N=C/c3cc4cc(C)ccc4nc3Cl)C2=O)cc1 | 19.1 µM (inactive) | 12 µM (inactive) | 14.3 µM (inactive) | 17.9 µM (inactive) | 20.7 µM (inactive) | 24 µM (inactive) | 17.9 µM (inactive) | 27.6 µM (inactive) | 16.9 µM (inactive) | 23.1 µM (inactive) | 13.5 µM (inactive) | 18.2 µM (inactive) | 17.5 µM (inactive) | 8.15 µM (inactive) | 15.6 µM (inactive) | – | 23.1 µM (inactive) | 17.1 µM (inactive)
CC(C)CCNC(=O)C(CC(C)C)NC(=O)[C@H]1O[C@@H]1C(=O)O (stereo not given in full) | > 100 µM (inactive) | > 100 µM (inactive) | > 100 µM (inactive) | > 100 µM (inactive) | > 100 µM (inactive) | > 100 µM (inactive) | > 100 µM (inactive) | – | > 100 µM (inactive) | > 100 µM (inactive) | > 100 µM (inactive) | > 100 µM (inactive) | > 100 µM (inactive) | > 100 µM (inactive) | > 100 µM (inactive) | > 100 µM (inactive) | > 100 µM (inactive) | > 100 µM (inactive)
CCCCCCCCCCC(C(=O)O)C1(C(=O)O)CCC(=O)O1 (stereo not given) | > 100 µM (inactive) | > 100 µM (inactive) | > 100 µM (inactive) | > 100 µM (inactive) | > 100 µM (inactive) | > 100 µM (inactive) | > 100 µM (inactive) | > 100 µM (inactive) | > 100 µM (inactive) | > 100 µM (inactive) | > 100 µM (inactive) | > 100 µM (inactive) | – | > 100 µM (inactive) | > 100 µM (inactive) | – | > 100 µM (inactive) | 43.2 µM (inactive)
